Experimental findings from US11857579B2, “Composition for promoting the secretion of FGF21” (MORINAGA MILK INDUSTRY CO., LTD., priority 2018, dated 2024) are described below.

One assay relates to FGF21 gene in liver. As to the kind of experiment: Expression of FGF21 gene in liver by RT-PCR after oral administration to neonatal mice. In kind it is in vivo, C57BL/6J male mice. From the text: (§1) Bacterial cell powder (2.4×10^11 cfu/g) of Bifidobacterium breve M-16V (NITE BP-02622) triturated with starch was suspended in physiological saline to prepare a Bifidobacterium liquid of 2.5×10^9 cfu/ml.
(§2) Lactulose (manufactured by Morinaga Milk Industry Co., Ltd.), raffinose (product name: Nitten Rraffinose, manufactured by Nippon Beet Sugar Manufacturing Co., Ltd.), and galactooligosaccharide were mixed at a ratio by weight of 1:1:1 and diluted in distilled water to prepare an oligosaccharide stock solution having a total final concentration of 250 mg/ml. The galactooligosaccharide is obtained by removing monosaccharides and disaccharides from a commercial product (product name: Oligomate 55N, manufactured by Yakult Pharmaceutical Industry Co., Ltd.) and contains about 65% by weight of Galβ1-4Galβ1-4Glc (4′-galactosyl lactose) and about 15% by weight of Galβ1-6Galβ1-4Glc (6′-galactosyl lactose). […]
(§3) Each animal was subjected to anatomy at 21 days old and the serum and liver were taken out of the body. The FGF21 concentration in the serum and the expression of FGF21 gene in the liver were determined. The FGF21 concentration in the serum was measured with an ELISA kit (manufactured by R&D Systems). The expression of FGF21 gene in the liver was measured by RT-PCR. […]

In another assay the test system is FGF21. As to the kind of experiment: FGF21 concentration in serum by ELISA after oral administration to neonatal mice. In kind it is in vivo, C57BL/6J male mice. As to conditions: 100 μl once a day during 6 to 20 days old, serum taken at 21 days old.
Source text: as §1, §2, §3
Background: In an ELISA, binding on a coated surface is turned into a signal by an enzyme label.

With “Bifidobacterium breve M-16V (NITE BP-02622) [Group B]”, in the assay on FGF21 gene in liver (at 21 days old, versus group A (vehicle) and group C (oligosaccharide)), the “Expression of FGF21 gene in the liver compared with group A and group C” value is “significantly higher”. Besides, the “Expression of FGF21 gene in liver (values relative to the value of Group A which was taken as 100.0), Average” value in the assay with FGF21 gene in liver (neonatal mice, 100 μl once a day during 6 to 20 days old, liver taken at 21 days old, RT-PCR, Group A (vehicle) = 100.0) was determined as 197.7. The “FGF21 Concentration in serum, Average” value in the assay with FGF21 was 397.3 pg/mL.
